Source: patent US20130059773A1, “COMPOUNDS FOR THE TREATMENT OF INFLAMMATION AND NEUTROPENIA” (priority 2010, published 2013)

What was measured:
BM neutrophils = assay: Apoptosis of BM-isolated mouse neutrophils by annexin-V labelling; format: cell-based; details: increasing gliotoxin concentrations
Method: In vivo model of LPS-induced airway inflammation. Peripheral blood neutrophils and BM mature neutrophils from femurs were isolated using Percoll density gradient, as described in Mocsai et al. (2002, Immunity 16:547-558). Intranasal LPS administration in mice and collection of cells from BALF was performed as described in Chignard et al. (2000, Am. J. Physiol. Lung Cell Mol. Physiol. 279:L1083-1090). Mice were treated in accordance with Inserm guidelines in compliance with European animal-welfare regulations. Seven-week-old male C57B1/6 mice, weighing 25-30 g (Charles Rivers), were anesthetized by intra-muscular injection of a mixture of ketamine and xylasine, and then 330 μg/kg of LPS dissolved in 50 μl of saline were deposited intranasally. At different times, animals were killed by an intraperitoneal injection of a lethal dose of sodium pentobarbital (Sanofi) to isolate lung neutrophils. The trachea of each mouse was then cannulated and BAL performed with a syringe and multiple cycles of saline instillation (0.5 ml) and aspiration to obtain a BALF volume of 4 ml. The latter was centrifuged, pelleted cells were collected and differential cell counts made after cytospin centrifugation and staining with Diff-Quik products. BAL neutrophils were isolated by Ficoll density gradient centrifugation. […]

neutrophils [1] = assay: Neutrophil apoptosis/survival by phosphatidylserine externalization after annexin-V and 7-AAD labeling; format: cell-based, human; details: 15 h at 37° C.; anti-Fas mAb 10 ng/ml, gliotoxin 2 mg/ml
Method: Analysis of apoptosis. Neutrophil apoptosis was triggered by incubating neutrophils at 37° C. alone (constitutive apoptosis) or with anti-Fas mAb (10 ng/ml; Beckman-Coulter) or gliotoxin ([…]; Sigma) (Ward et al. 1999, J. Biol. Chem. 274:4309-4318) for the indicated times. Neutrophil apoptosis was evaluated by phosphatidylserine externalization after annexin-V and 7-AAD labeling (Kantari et al. 2007, Blood 110:4086-4095); mitochondrial depolarization after DiOC6 labeling (Moriceau et al. 2009, J. Immuno1.182:7254-7263); caspase-3 and caspase-8 activities measured by spectrophotometry (Biovision) in neutrophil lysates. In DMF-differentiated-PLB985 cells, apoptosis was triggered by gliotoxin or by rTRAIL (10 ng/ml; RD System) (Yin et al. 2005, Int. J. Biochem. Cell Biol. 37:1696-1708) and caspase-8 and caspase-9 activities were determined after gating on CD11b^+ cells using the Caspase-Glow® assay (Promega). Apoptosis-induced chromatin condensation and DNA fragmentation were assessed, respectively, after DNA staining with the blue fluorescent dye Hoechst (5 mg/ml) and propidium-iodide staining (Goepel et al. 2004, J. Leukoc. Biol. 75:836-843). Carboxyp21 ([…], SEQ ID NO: 24) corresponding to the p21 carboxy-terminus sequence (residues 141-160) and containing a RYIRS carboxy-terminal extension to facilitate its cell entry was synthesized and purified (Genecust). A modified peptide in which the charged amino acids responsible for its binding to PCNA have been changed according to dynamic simulation studies ([…], SEQ ID NO: 25) served as control. The effect of PS-341 (LC Laboratories) and MG132 were tested on neutrophil apoptosis and PCNA expression as indicated.

neutrophils [2] = details: report; cited from earlier work
[3] = report; cited from earlier work

| SMILES | Apoptosis of BM neutrophils by annexin-V labelling (BM neutrophils) | Increase of annexin-V+ 7-AAD− cells (neutrophils [1]) | Neutrophil apoptosis (neutrophils [2]) | Inflammation resolution in vivo [3] |
| --- | --- | --- | --- | --- |
| CN1C(=O)[C@]23CC4=CC=C[C@H](O)[C@H]4N2C(=O)[C@@]1(CO)SS3 [gliotoxin, reference compound] | trigger apoptosis in BM neutrophils in a dose-dependent manner | further enhanced | – | – |
| CC[C@H](CO)Nc1nc(NCc2ccccc2)c2ncn(C(C)C)c2n1 [roscovitine] | – | – | triggers neutrophil apoptosis | promotes inflammation resolution in vivo |
